Data from patent US9642381B2, “Orally consumable formulations comprising certain sweet-tasting triterpenes and triterpene glycosides” (Symrise AG, priority 2011, dated 2017).

Tests used:
Format in all cases: in vivo, human
group of experts [1] = assay: Sensory evaluation of Balansin A and Balansin B by a group of experts; details: 50 ppm in water and in a 5 wt % aqueous saccharose solution; Balansin A described in the aqueous solution
Text: A group of experts tasted and sensorily evaluated the two isolated compounds Balansin A and Balansin B from Example 4, each at a concentration of 50 ppm in water and a 5 wt % aqueous saccharose solution.

[2] = tested on: group of at least five persons; assay: Intrinsic sweetness against a saccharose reference series (saccharose equivalents); details: 50 ppm, against saccharose reference series in water
Text: To determine the sweet impression of the extracts according to the invention or of the compounds according to the invention of the formula (I) compared to an aqueous saccharose solution, an aqueous solution of one or a plurality of compounds of the formula (I) is produced in the same concentration as is present in the orally consumable formulation under study. This aqueous solution is then compared and rated for taste by a group of at least five persons against a reference series of different saccharose concentrations in water. In this way, the saccharose equivalence is determined (indicated in saccharose equivalents), in other words, the concentration of the saccharose solution, whose sweet impression is equivalent to the sweet impression of the concentration of compounds of the formula (I). Preferred concentrations of the saccharose reference solution are 0; 0.25; 0.5; 0.75; 1; 1.5; 2; 3; 4 and 5 wt % saccharose in water. If necessary, other concentrations, particularly higher concentrations, can also be used for the reference series. The ascertained saccharose equivalent is obtained from the mean value of the individual rating of the individual panelists. The panelists are preferably persons who have experience in the field of tasting, are of different age and gender and come from different backgrounds. […]

group of experts [3] = assay: Reinforcing the sweet impression of a 5 wt % saccharose solution; details: for % Reinforcement of the sweet impression: versus saccharose solution alone; for Sweet impression (1-10) with: rating 1 [not sweet] to 10 [extremely sweet]
Description: In order to quantify the reinforcement of the sweet impression, the sweetness of a 5 wt %-containing saccharose solution and of a sample which contained 5 wt % saccharose and a quantity of the test substance or test extract was determined by a group of experts (rating 1 [not sweet] to 10 [extremely sweet]). The analysis was performed as a calculation of the […] (in %) of the sweet impression from the average values of the assessments of the saccharose solution and of the solution containing saccharose and Compound 2 (p was determined as a significance measure according to the paired, two-tailed Student's statistical test).

[4] = 25 ppm in 5 wt % saccharose solution
[5] = 50 ppm in 5 wt % saccharose solution

Row | Structure (SMILES) | Sensory evaluation (taste description) (group of experts [1]) | Intrinsic sweetness, equivalent to the sweetness of saccharose [2] [% saccharose] | % Reinforcement of the sweet impression (group of experts [3]; [4]) | Sweet impression (1-10) with (group of experts [3]; [4]) | % Reinforcement of the sweet impression (group of experts [3]; [5]) | Sweet impression (1-10) with (group of experts [3]; [5])
1 | CC(C)(O)C(O)C/C=C(\CO)[C@H]1CC[C@]2(C)[C@@H]1CC[C@@H]1[C@@]3(C)CC[C@H](O[C@@H]4O[C@H](CO)[C@@H](O)[C@H](O)[C@H]4OC4O[C@H](CO)[C@@H](O)[C@H](O)[C@H]4O)C(C)(C)[C@@H]3CC[C@]12C (some centres unmarked) [Balansin A] | intensely sweet, also as slightly bitter and displayed a sweetener-type note | 2 | 48% (p < 0.00005) | 7.2 ± 1.4 | – | –
2 | CC(C)(O)C(O)C/C=C(\CO)[C@H]1CC[C@]2(C)[C@@H]1CC[C@@H]1[C@@]3(C)CC[C@H](O[C@@H]4O[C@H](COC5OC(CO)[C@@H](O)[C@H](O)[C@H]5O)[C@@H](O)[C@H](O)[C@H]4OC4O[C@H](CO)[C@@H](O)[C@H](O)[C@H]4O)C(C)(C)[C@@H]3CC[C@]12C (some centres unmarked) [Balansin B] | slightly bitter, slightly sweetener-type and weakly ethanolic, but otherwise displayed no noticeable intrinsic taste | 1 | – | – | 31% (p < 0.0005) | 6.7 ± 1.1
